The test system of assay [1] is Primary WT mouse aortic smooth muscle cells. In words: alamarBlue cell viability assay in primary mouse aortic smooth muscle cells. As to conditions: 48 hours after treatment; 10% FBS/DMEM; increasing concentrations; p<0.0001 vs vehicle (0 uM). The class given is cell-based. As for the experimental part:
FIG. 11. Primary WT mouse aortic smooth muscle cells cultured in 10% FBS/DMEM medium were exposed to increasing concentrations of ICG-001 or vehicle (triplicates for each concentration). Cell viability was measured 48 hours after treatment by alamarBlue Assay. Cell viability (%, relative to vehicle treated cells, which were set as 100%) is plotted against the concentration of ICG-001 (uM).
(§1) In order to test the role of Wnt/beta-catenin signaling in vascular SMC biology, beta-catenin was specifically inactivated in SMCs, using a genetic approach in the mouse. […] After midgestation, dilated arterial vessels without an evident SMC layer were observed (FIG. 7). […] It was determined that increased p53 activity in SMCs partially explains the effects of inactivating beta-catenin (FIG. 9).
Background: Resazurin is reduced to fluorescent resorufin, in cell work by metabolically active cells.

Another assay concerns p53. In words: p53 luciferase-based reporter assay in primary vascular SMCs. The class given is cell-based. As to conditions: control primary vascular SMCs (Adeno-GFP). As for the experimental part: FIG. 10. […] The activity of p53 was measured by a luciferase-based reporter assay.
as §1
For orientation: In a reporter assay the amount or activity of a reporter protein is the signal.

The results in this text go back to patent publication US10441687B2, “Wnt/beta-catenin inhibitor-eluting endovascular stent” (ALBERT EINSTEIN COLLEGE OF MEDICINE, INC., priority 2013, dated 2019).

“Also recorded” adds a separate entry of the source.

With `O=C1[C@H](Cc2ccc(O)cc2)N2C(=O)CCN(C(=O)NCc3ccccc3)[C@H]2CN1Cc1cccc2ccccc12` [ICG-001], the “Cell viability (%, relative to vehicle treated cells)” value in assay [1] is “significantly decreases viability of MASMCs in culture in a dose-response manner”. Turning to `Oc1nc(-c2ccc(C(F)(F)F)cc2)nc2c1CSCC2` [XAV939], the “p53 activity compared to vehicle (DMSO)” value in the assay on p53 (10 uM XAV939, p<0.05) was “significant increase in p53 activity”. Also, in the assay on p53 (wild type, luciferase-based reporter, dose dependence), the p53 activity result was “induced p53 activity in control primary vascular SMCs (Adeno-GFP) in a dose dependent manner; also recorded: induced p53 activity in wild type vascular SMCs”.
